The structures appear in SMILES notation. Counter-ions that a name gives are not always drawn.

In the experiment the target is T1, recombinant GST-GK (Homo sapiens, UniProt P35557).
T1 sequence (P35557 1-465): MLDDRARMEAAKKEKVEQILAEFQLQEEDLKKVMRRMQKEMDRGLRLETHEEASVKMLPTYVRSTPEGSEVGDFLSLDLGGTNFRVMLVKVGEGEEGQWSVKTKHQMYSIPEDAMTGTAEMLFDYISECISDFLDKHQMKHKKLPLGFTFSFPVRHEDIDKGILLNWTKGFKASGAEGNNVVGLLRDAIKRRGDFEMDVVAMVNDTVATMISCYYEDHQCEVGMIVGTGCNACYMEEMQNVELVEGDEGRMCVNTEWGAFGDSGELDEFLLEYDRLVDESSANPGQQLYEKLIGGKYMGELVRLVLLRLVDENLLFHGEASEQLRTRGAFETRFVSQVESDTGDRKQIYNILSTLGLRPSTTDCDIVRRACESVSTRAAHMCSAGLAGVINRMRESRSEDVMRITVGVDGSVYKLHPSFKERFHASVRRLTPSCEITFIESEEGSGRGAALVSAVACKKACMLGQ
The experiment can be described thus: primary enzyme assay: glucokinase activation in vitro (thio-NADH coupled assay). The experiment is classed as biochemical. Conditions: concentration of compound that produces a 50% increase in the activity of GK vs DMSO control; 10 mM glucose, 25° C. The text has this: For example, the glucokinase activation in vitro may be determined by measuring the activation of recombinant GST-GK by a compound of the present invention in the absence or the presence of GKRP, a 68,000 Da protein inhibitor of GK. In these assays, formation of glucose-6-phosphate is coupled directly to the formation of thio-NADH. GST-GK catalyzes the reaction of glucose and Mg-ATP to produce glucose-6-phosphate and ADP. Glucose-6-phosphate dehydrogenase (G6PDH) reduces thionicotinamide (thio-NAD) to thio-NADH. The assay measures the formation of thio-NADH at […].
The basic GK assay components are as follows: 25 mM HEPES (pH 7.1), 25 mM KCl, 2.5 mM MgCl2, 1 mM ATP (Sigma A-5394), 1 mM DTT, 1 mM thio-NAD (Sigma T-7375), 80 units/mL G6PDH (Sigma G-5885), 10 mM glucose and 110 nM GST-GK. For assessing reversal of GK inhibition by GKRP, 20 μM Fructose-6-phosphate (F-6-P) and 370 nM recombinant GKRP are added to these assay components. Fructose-1-phosphate (F-1-P) at 1 μM is used as a control in the GK/GKRP assay. F-1-P reverses inhibition of GST-GK by GKRP.
The assay is done in standard, 96-well, round-bottom plates (Corning) and the total assay volume is 25 μL. Test compounds are serially diluted into 100% DMSO and 0.5 μL of diluted compound in 100% DMSO is added to the assay plate. Assay reagents (24.5 μL) are added using a Zymark robotic platform. Buffer, containing HEPES, MgCl2, KCl, thio-NAD, G6PDH, glucose and GST-GK, are added (5 μL) using the Zymark 8-channel hand pipet. For the GK/GKRP assay, GKRP and F-6-P are also included. The reaction is then initiated by adding 19.5 μL of buffer containing HEPES, MgCl2, KCl, DTT and ATP using the Zymark Reagent Addition Station/Reagent Addition Module. The plates are read kinetically over 10 min at 25° C. using a SpectraMax Plus microplate spectrophotometer (Molecular Devices, Sunnyvale, Calif.) to monitor the increase in optical density at 405 nm. The GK activity in wells containing test compounds is compared with activity in DMSO control wells. The concentration of compound that produces a 50% increase in the activity of GK is calculated and expressed as EC50.
On to `COCCN(C)C(=O)c1ccc2nc(NC(=O)[C@H](CC3CCCC3)c3ccc(S(=O)(=O)N4CCN(C)CC4)cc3)sc2n1` [Example 4-52, 2-{(R)-3-Cyclopentyl-2-[4-(4-methyl-piperazine-1-sulfonyl)-phenyl]-propionylamino}-thiazolo[5,4-b]pyridine-5-carboxylic acid (2-methoxy-ethyl)-methyl-amide], for which the EC50 is 2100 nM.
As for `CN1CCN(S(=O)(=O)c2ccc(C(CC3CCCC3)C(=O)Nc3nc4ccc(-c5ccccc5)nc4s3)cc2)CC1` (stereo not shown) [Example 4-44, 3-Cyclopentyl-2-[4-(4-methyl-piperazine-1-sulfonyl)-phenyl]-N-(5-phenyl-thiazolo[5,4-b]pyridin-2-yl)-propionamide], the figure is 260 nM.
As for `CN1CCN(S(=O)(=O)c2ccc(C(CC3CCCC3)C(=O)Nc3ccc(C(=O)O)cn3)cc2)CC1` (stereo not shown) [Example 4-23, 6-{3-Cyclopentyl-2-[4-(4-methyl-piperazine-1-sulfonyl)-phenyl]-propionylamino}-nicotinic acid], the EC50 was 1400 nM.
In the case of `CCN(CC)S(=O)(=O)c1ccc(C(CC2CCCC2)C(=O)Nc2nccs2)cc1` (stereo not shown) [Example 4-15, 3-Cyclopentyl-2-(4-diethylsulfamoyl-phenyl)-N-thiazol-2-yl-propionamide] it was 60 nM; in that of `CN1CCN(S(=O)(=O)c2ccc(C(CC3CCCC3)C(=O)Nc3nccc4ccccc34)cc2)CC1` (stereo not shown) [Example 4-1, 3-Cyclopentyl-N-isoquinolin-1-yl-2-[4-(4-methyl-piperazine-1-sulfonyl)-phenyl]-propionamide], 1100 nM; in that of `COc1ccc2nc(NC(=O)C(CC3CCCC3)c3ccc(S(=O)(=O)N4CCC(C(=O)O)CC4)cc3)sc2n1` (stereo not shown) [Example 3, 1-{4-[2-Cyclopentyl-1-(5-methoxy-thiazolo[5,4-b]pyridin-2-ylcarbamoyl)-ethyl]-benzenesulfonyl}-piperidine-4-carboxylic acid], 7100 nM.
As for `COc1ccc2nc(NC(=O)C(CC3CCCC3)c3ccc(S(=O)(=O)N4CCNCC4C(=O)O)cc3)sc2n1` (stereo not shown) [Example 4-94, 1-{4-[2-Cyclopentyl-1-(5-methoxy-thiazolo[5,4-b]pyridin-2-ylcarbamoyl)-ethyl]-benzenesulfonyl}-piperazine-2-carboxylic acid], the EC50 came out at 9300 nM.
As for `CCN(CC)S(=O)(=O)c1ccc(C(CC2CCCC2)C(=O)Nc2nc3c(s2)CN(C(=O)OC(C)(C)C)CC3)cc1` (stereo not shown) [Example 4-8, 2-[3-Cyclopentyl-2-(4-diethylsulfamoyl-phenyl)-propionylamino]-6,7-dihydro-4H-thiazolo[5,4-c]pyridine-5-carboxylic acid tert-butyl ester], the EC50 was 95 nM.
With `CN1CCN(S(=O)(=O)c2ccc(C(CC3CCCC3)C(=O)Nc3nccc4ccccc34)cc2)CC1` (stereo not shown) [Example 1, 3-Cyclopentyl-N-isoquinolin-1-yl-2-[4-(4-methyl-piperazine-1-sulfonyl)-phenyl]-propionamide hydrochloride], the EC50 was 50000 nM.
As for `CN1CCN(S(=O)(=O)c2ccc(C(CC3CCCC3)C(=O)Nc3nc4ccc(Br)nc4s3)cc2)CC1` (stereo not shown) [Example 4-22, N-(5-Bromo-thiazolo[5,4-b]pyridin-2-yl)-3-cyclopentyl-2-[4-(4-methyl-piperazine-1-sulfonyl)-phenyl]-propionamide], the figure is 390 nM.

The values above are taken from patent publication US7795257B2, “Organic compounds” (Novartis AG, priority 2005, dated 2010).
